The values below come from patent publication US7524964B2, “Tetrahydrothiopyrano pyrazole cannabinoid modulators” (Janssen Pharmaceutica NV, priority 2005, dated 2009).

pIC50: −log10 of the molar value. Like-named read-outs stand apart in the source and are kept apart here.

Experiment [1] addresses T1, human CB-2 receptor (Homo sapiens, UniProt P34972).
T1 construct: expressed in transfected cells; host or cells: SK-N-MC cells, pcDNA3 CB-2 (human), semi-purified membranes
The experiment is described as follows: Binding assay, cannabinoid CB2 receptor ([3H]-CP-55,940 displacement). Particulars: read-out: CB2 binding percent inhibition. In outline: (§1)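 Membranes from SK-N-MC cells stably expressing human CB-1 or CB-2 were incubated 90 min at 30° C with 0.2 nM [3H]-CP-55,940 in pH 7.5 Tris buffer with fatty-acid-free BSA; 10 uM WIN 55,212 defined non-specific binding. Filter-bound counts gave IC50 by linear regression, or percent inhibition at 0.2, 1 or 10 μM.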

In experiment [2] the target is human CB1 receptor (Homo sapiens, UniProt P21554). The experiment is described as follows: Binding assay, cannabinoid CB1 receptor ([3H]-CP-55,940 displacement). More on the design: expressed in transfected cells; host or cells: SK-N-MC cells, pcDNA3 CB-1 (human), semi-purified membranes. Particulars: for inhibition at 0.2 µM: test concentration 0.2 μM (superscript a), read-out: CB1 binding percent inhibition. In outline:
as §1

Where [3] appears, read: test concentration 0.2 μM (superscript a).

T1 sequence (P34972 whole entry): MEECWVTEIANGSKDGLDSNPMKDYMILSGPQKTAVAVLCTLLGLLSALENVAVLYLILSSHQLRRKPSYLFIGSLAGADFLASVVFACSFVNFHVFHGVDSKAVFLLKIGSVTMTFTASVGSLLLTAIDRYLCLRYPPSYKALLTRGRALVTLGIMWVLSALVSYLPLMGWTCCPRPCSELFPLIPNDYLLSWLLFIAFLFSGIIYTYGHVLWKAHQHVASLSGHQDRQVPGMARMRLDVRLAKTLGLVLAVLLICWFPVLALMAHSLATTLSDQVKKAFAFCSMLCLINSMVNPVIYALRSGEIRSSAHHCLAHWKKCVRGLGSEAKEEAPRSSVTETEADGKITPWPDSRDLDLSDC
Sequence of human CB1 receptor (P21554 whole entry): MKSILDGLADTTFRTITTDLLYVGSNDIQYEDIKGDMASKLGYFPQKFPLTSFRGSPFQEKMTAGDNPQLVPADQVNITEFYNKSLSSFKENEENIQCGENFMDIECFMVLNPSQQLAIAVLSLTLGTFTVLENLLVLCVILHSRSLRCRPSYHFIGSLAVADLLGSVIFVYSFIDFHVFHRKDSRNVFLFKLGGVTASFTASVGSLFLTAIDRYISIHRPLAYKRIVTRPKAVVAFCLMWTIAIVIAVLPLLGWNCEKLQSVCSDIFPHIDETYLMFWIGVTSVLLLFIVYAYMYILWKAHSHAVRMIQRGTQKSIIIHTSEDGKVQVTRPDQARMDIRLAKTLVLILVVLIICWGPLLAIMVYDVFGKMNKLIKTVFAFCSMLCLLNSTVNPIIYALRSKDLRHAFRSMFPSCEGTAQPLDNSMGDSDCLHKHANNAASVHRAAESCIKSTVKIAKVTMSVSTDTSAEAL

Regarding `CN1CCN(NC(=O)c2nn(-c3ccc(Cl)cc3Cl)c3c2CSC/C3=C\c2ccc(F)cc2)CC1` [Cpd 113, (7Z)-1-(2,4-dichloro-phenyl)-7-(4-fluoro-benzylidene)-1,4,6,7-tetrahydro-thiopyrano[4,3-c]pyrazole-3-carboxylic acid (4-methyl-piperazin-1-yl)-amide], the figures for the inhibition at 0.2 µM in experiment [1] (setting [3]) and in experiment [2] were 0% and 17%, respectively.
Taken in the same sequence, the figures for `O=C(NN1CCN(CCO)CC1)c1nn(-c2ccc(Cl)cc2Cl)c2c1CSC/C2=C\c1ccc(F)cc1` [Cpd 114, (7Z)-1-(2,4-dichloro-phenyl)-7-(4-fluoro-benzylidene)-1,4,6,7-tetrahydro-thiopyrano[4,3-c]pyrazole-3-carboxylic acid [4-(2-hydroxy-ethyl)-piperazin-1-yl]-amide] were 5% and 6%.
Regarding `O=C(NNC1CCCCC1)c1nn(-c2ccc(Cl)cc2Cl)c2c1CSC/C2=C\c1ccc(F)cc1` [Cpd 115, (7Z)-1-(2,4-dichloro-phenyl)-7-(4-fluoro-benzylidene)-1,4,6,7-tetrahydro-thiopyrano[4,3-c]pyrazole-3-carboxylic acid N′-cyclohexyl-hydrazide], the inhibition (in general, the drop in the measured response relative to a control, in per cent) at 0.2 µM in experiment [1] (setting [3]) was determined as 19%. The pIC50 (usually the negative decadic logarithm of the IC50, by convention in mol/L) in experiment [2] is 7.10.
Regarding `O=C(NN1CC2CCCC2C1)c1nn(-c2ccc(Cl)cc2Cl)c2c1CSC/C2=C\c1ccc(F)cc1` (centres unmarked) [Cpd 116, (7Z)-1-(2,4-dichloro-phenyl)-7-(4-fluoro-benzylidene)-1,4,6,7-tetrahydro-thiopyrano[4,3-c]pyrazole-3-carboxylic acid (hexahydro-cyclopenta[c]pyrrol-2-yl)-amide], the inhibition at 0.2 µM in experiment [1] (setting [3]) amounted to 18%. The molecule further had a pIC50 in experiment [2] of 7.96.
`C[C@@H](NC(=O)c1nn(-c2ccc(Cl)cc2Cl)c2c1CS(=O)(=O)C/C2=C\c1ccc(Cl)o1)c1ccccc1` [Cpd 117, (7Z)-7-(5-chloro-furan-2-ylmethylene)-1-(2,4-dichloro-phenyl)-5,5-dioxo-4,5,6,7-tetrahydro-1H-5λ^6-thiopyrano[4,3-c]pyrazole-3-carboxylic acid [(1R)-1-phenyl-ethyl]-amide]: the inhibition at 0.2 µM in experiment [1] was determined as 18%. Moreover, in experiment [2], the negative logarithm of the IC50 (pIC50) is 8.05.
Turning to `C[C@@H](NC(=O)c1nn(-c2ccc(Cl)cc2Cl)c2c1CS(=O)(=O)C/C2=C\c1ccc(Cl)o1)C1CCCCC1` [Cpd 118, (7Z)-7-(5-chloro-furan-2-ylmethylene)-1-(2,4-dichloro-phenyl)-5,5-dioxo-4,5,6,7-tetrahydro-1H-5λ^6-thiopyrano[4,3-c]pyrazole-3-carboxylic acid [(1R)-1-cyclohexyl-ethyl]-amide], the inhibition at 0.2 µM in experiment [1] (setting [3]) is 11%. This molecule showed a negative-log IC50 (pIC50) in experiment [2] of 8.10.
For `O=C(NN1CCCCC1)c1nn(-c2ccc(Cl)cc2Cl)c2c1CS(=O)(=O)C/C2=C\c1ccc(Cl)o1` [Cpd 119, (7Z)-7-(5-chloro-furan-2-ylmethylene)-1-(2,4-dichloro-phenyl)-5,5-dioxo-4,5,6,7-tetrahydro-1H-5λ^6-thiopyrano[4,3-c]pyrazole-3-carboxylic acid piperidin-1-ylamide] the same measures were 17% and 7.09.
For `O=C(NN1CCCCCC1)c1nn(-c2ccc(Cl)cc2Cl)c2c1CS(=O)(=O)C/C2=C\c1ccc(Cl)o1` [Cpd 120, (7Z)-7-(5-chloro-furan-2-ylmethylene)-1-(2,4-dichloro-phenyl)-5,5-dioxo-4,5,6,7-tetrahydro-1H-5λ^6-thiopyrano[4,3-c]pyrazole-3-carboxylic acid azepan-1-ylamide] the same measures were 12% and 7.48.
With `O=C(NN1CC2CCCC2C1)c1nn(-c2ccc(Cl)cc2Cl)c2c1CS(=O)(=O)C/C2=C\c1ccc(Cl)o1` (centres unmarked) [Cpd 121, (7Z)-7-(5-chloro-furan-2-ylmethylene)-1-(2,4-dichloro-phenyl)-5,5-dioxo-4,5,6,7-tetrahydro-1H-5λ^6-thiopyrano[4,3-c]pyrazole-3-carboxylic acid (hexahydro-cyclopenta[c]pyrrol-2-yl)-amide], the inhibition at 0.2 µM in experiment [1] (setting [3]) stood at 15%. This molecule had a negative-log IC50 (pIC50) in experiment [2] of 7.32.
For `COC[C@H]1CCCN1NC(=O)c1nn(-c2ccc(Cl)cc2Cl)c2c1CSC/C2=C\c1ccc(F)cc1` [Cpd 122, (7Z)-1-(2,4-dichloro-phenyl)-7-(4-fluoro-benzylidene)-1,4,6,7-tetrahydro-thiopyrano[4,3-c]pyrazole-3-carboxylic acid [(2R)-2-(methoxymethyl)-pyrrolidin-1-yl]-amide] the same measures were 18% and 8.22.
As for `COC[C@@H]1CCCN1NC(=O)c1nn(-c2ccc(Cl)cc2Cl)c2c1CSC/C2=C\c1ccc(F)cc1` [Cpd 123, (7Z)-1-(2,4-dichloro-phenyl)-7-(4-fluoro-benzylidene)-1,4,6,7-tetrahydro-thiopyrano[4,3-c]pyrazole-3-carboxylic acid [(2S)-2-(methoxymethyl)-pyrrolidin-1-yl]-amide], the inhibition at 0.2 µM was 12% in experiment [1] (setting [3]) and 61% in experiment [2].
Turning to `C[C@@H](NC(=O)c1nn(-c2ccc(Cl)cc2Cl)c2c1CS(=O)(=O)C/C2=C\c1ccc(F)cc1)c1ccccn1` [Cpd 124, (7Z)-1-(2,4-dichloro-phenyl)-7-(4-fluoro-benzylidene)-5,5-dioxo-4,5,6,7-tetrahydro-1H-5λ^6-thiopyrano[4,3-c]pyrazole-3-carboxylic acid [(1R)-1-(pyridin-2-yl)-ethyl]-amide], the inhibition at 0.2 µM in experiment [1] (setting [3]) turned out to be 12%. In experiment [2], this molecule gave a pIC50 of 8.30.
For `COC[C@@H]1CCCN1NC(=O)c1nn(-c2ccc(Cl)cc2Cl)c2c1CS(=O)(=O)C/C2=C\c1ccc(F)cc1` [Cpd 125, (7Z)-1-(2,4-dichloro-phenyl)-7-(4-fluoro-benzylidene)-5,5-dioxo-4,5,6,7-tetrahydro-1H-5λ^6-thiopyrano[4,3-c]pyrazole-3-carboxylic acid [(2S)-2-(methoxymethyl)-pyrrolidin-1-yl]-amide], the inhibition at 0.2 µM in experiment [1] (setting [3]) amounted to 8%. For the same molecule, the pIC50 in experiment [2] is 7.24.
For the molecule `COC[C@H]1CCCN1NC(=O)c1nn(-c2ccc(Cl)cc2Cl)c2c1CS(=O)(=O)C/C2=C\c1ccc(F)cc1` [Cpd 126, (7Z)-1-(2,4-dichloro-phenyl)-7-(4-fluoro-benzylidene)-5,5-dioxo-4,5,6,7-tetrahydro-1H-5λ^6-thiopyrano[4,3-c]pyrazole-3-carboxylic acid [(2R)-2-(methoxymethyl)-pyrrolidin-1-yl]-amide], the inhibition at 0.2 µM in experiment [1] (setting [3]) was determined as 0%; in experiment [2], 55%.
As to `C[C@@H](NC(=O)c1nn(-c2ccc(Cl)cc2Cl)c2c1CSC/C2=C\c1ccc(F)cc1)c1ccccn1` [Cpd 127, (7Z)-1-(2,4-dichloro-phenyl)-7-(4-fluoro-benzylidene)-1,4,6,7-tetrahydro-thiopyrano[4,3-c]pyrazole-3-carboxylic acid [(1R)-1-(pyridin-2-yl)-ethyl]-amide], the inhibition at 0.2 µM in experiment [1] came to 19%. For the same molecule, the pIC50 in experiment [2] was 8.15.
For the molecule `C[C@@H](NC(=O)c1nn(-c2ccc(Cl)cc2Cl)c2c1CS(=O)(=O)CC2)c1ccccc1` [Cpd 128, 1-(2,4-dichloro-phenyl)-5,5-dioxo-4,5,6,7-tetrahydro-1H-5λ^6-thiopyrano[4,3-c]pyrazole-3-carboxylic acid [(1R)-1-phenyl-ethyl]-amide], the inhibition at 0.2 µM came out at 10% in experiment [1] (setting [3]) and 5% in experiment [2].
